Measurements taken from patent publication US11679168B2, “Caspase-3-triggered molecular self-assembling PET probes and uses thereof” (The Board of Trustees of the Leland Stanford Junior …, priority 2018, dated 2023).

Tested on: H1299 tumor
Assay: PET/CT imaging of H1299 tumor-bearing mice
Format: in vivo
Settings: for radioactivity retention in tumor: 85 min post-injection
Method: FIGS. 4A and 4D illustrate representative 55- to 60-min axial and sagittal fused PET/CT images. Nude mice received approximately 200 μCi of [18F]-C-SNAT4 via tail vein injection, with PET/CT images acquired at 55 to 60 min after injection. Arrowheads indicate the tumor, identified from the CT images. H460 and H1299 tumor bearing mice were naïve, or 24 h following last dose of cisplatin treatment (Low dose: 3 mg/kg every other day for three times; high dose: 9 mg/kg every other day for three times).
Animal model and probe administration: For subcutaneous tumor models, H460 or H1299 (2×10^6 cells in 100 μl of PBS) were injection subcutaneously on the back of female nu/nu nude mice (aged 6 to 8 weeks; Charles River Laboratories). Tumor dimensions were measured periodically using a caliper (by the same researcher), with tumor volumes calculated by the following equation: volume=a×b×c/2, where a, b, and c represent three orthogonal axis of the tumor. Treatment-response analysis was performed 24 h after drug treatment. For all other experiments, animals were culled 26 h after therapy and tissues excised for analysis. For chemotherapy mouse model, tumors were grown to about 150 mm^3, and then treatment that consisted of cisplatin (Sigma-Aldrich; Low dose: 3 mg/kg; high dose: 9 mg/kg) or saline was initiated through intravenous administration, every other day for three times. Total mouse body weight and tumor size were measured every other day. Treat or left untreated. For radiotherapy mouse model, treatment consisted of two fractions of 5 Gy or 2 Gy dose of radiation therapy delivered with a single 225 kV beam using the Kimtron IC 225 irradiator (Kimtron Medical, CT, USA).
Small-animal PET/CT imaging and analysis: PET/CT imaging was carried out on a docked Siemens Inveon PET/CT scanner (matrix size, 128×128×159; CT attenuation-corrected; non-scatter corrected) (Siemens Medical Solutions USA) following a bolus intravenous injection of approximately 200 μCi of [^18F]-C-SNAT4 into tumor-bearing mice (n=56, 3-4 mice per group). Dynamic scans were acquired in list mode format over 90 min, and sorted into 22 times of frames, 0.5-mm sinogram bins for image reconstruction (4×15 s, 4×60 s, 11×300 s, 3×600 s). Mice were anesthetized with 2% isoflurane near the center of the FOV to ensure the highest image resolution and sensitivity. Iterative reconstruction was performed using 3D ordered-subsets expectation maximization (3D-OSEM) followed by fast maximum a posteriori (fast MAP) with the following parameters: MAP OSEM iterations, 2; MAP subsets, 16; MAP iterations, 18. Siemens Inveon Research Workplace software v.4.0 was used for visualization of radiotracer uptake in the tumor, to define the three-dimensional (3D) volumes of interest (VOI) and for 3D-visualisation to create volume rendering technique (VRT) images. The relative tumor or organ radioactivity concentrations were from mean pixel values within the multiple ROI volumes. The radioactivity concentration within organs was obtained from mean pixel values with in the VOI and converted to counts per milliliter per min and then divided by the injected dose (ID) to obtain an imaging VOI-derived percentage of the injected radioactive dose per cubic centimeter of tissue (% ID/cc).

CCSSCC(NC(=O)C(CC(=O)O)NC(=O)C(NC(=O)C(CCC(=O)O)NC(=O)C(CC(=O)O)NC(C)=O)C(C)C)C(=O)NCC(=O)NC(Cc1cn(CCOCCOCCOCC[18F])nn1)C(=O)NCc1ccc(C(=O)NCCCOc2cnc(C#N)nc2)cc1 (stereo not drawn) [[^18F]-C-SNAT4]
AUC of time activity curve (H1299, high doses cisplatin): 64.2±27.8 % ID min/cc
radioactivity retention in tumor (H1299, high doses cisplatin): 0.5±0.3 % ID/cc
AUC of time activity curve (H1299, low doses cisplatin): 66.0±6.8 % ID min/cc
radioactivity retention in tumor (H1299, low doses cisplatin): 0.4±0.2 % ID/cc
AUC of time activity curve (H1299, saline): 41.2±25.4 % ID min/cc
radioactivity retention in tumor (H1299, saline): 0.4±0.1 % ID/cc
